Assay [1] concerns the target T1, HBV core protein (C-terminal truncated core protein, 149 amino acids of the N-terminal assembly domain, BODIPY-FL labelled) (UniProt P03146).
T1 construct: fused on or other part: A single cysteine added after residue 149, at position 150; It carries the BODIPY-FL maleimide label
Kind of assay: Biochemical capsid assembly assay (fluorescence quenching). The method in brief: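 Fluorescence quenching of BODIPY-FL-labelled core dimers (1.0 to 2.0 μM) in 50 mM HEPES pH 7.5; compounds at 8 concentrations, 0.5 log-unit dilutions from top 100, 31.6 or 10 μM, 0.5% DMSO. Assembly started with NaCl to […]; fluorescence (ex 477/em 525 nm) read after 6 min. EC50 by non-linear regression.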

The next assay relates to HBV (HepAD38 cells). Kind of assay: HBV replication assay: determination of HBV DNA from the supernatants of HepAD38 cells. The class given is cell-based. To be noted: Hepatitis B virus, 144 h, HBV DNA in HepAD38 supernatant at day 6, qPCR, read-out: Cell activity. How it is done: Determination of HBV DNA from the Supernatants of HepAD38 Cells
The anti-HBV activity was analysed in the stable transfected cell line HepAD38, which has been described to secrete high levels of HBV virion particles (Ladner et al., 1997). In brief, HepAD38 cells were cultured at 37° C. at 5% CO2 and 95% humidity in 200 μl maintenance medium, which was Dulbecco's modified Eagle's medium/Nutrient Mixture F-12 (Gibco, Karlsruhe), 10% fetal bovine serum (PAN Biotech Aidenbach) supplemented with 50 μg/ml penicillin/streptomycin (Gibco, Karlsruhe), 2 mM L-glutamine (PAN Biotech, Aidenbach), 400 μg/ml G418 (AppliChem, Darmstadt) and 0.3 μg/ml tetracycline. Cells were subcultured once a week in a 1:5 ratio, but were usually not passaged more than ten times. For the assay 60,000 cells were seeded in maintenance medium without any tetracycline into each well of a 96-well plate and treated with serial half-log dilutions of test compound. To minimize edge effects the outer 36 wells of the plate were not used but were filled with assay medium. On each assay plate six wells for the virus control (untreated HepAD38 cells) and six wells for the cell control (HepAD38 cells treated with 0.3 μg/ml tetracycline) were allocated, respectively. In addition, one plate set with reference inhibitors like BAY 41-4109, entecavir, and lamivudine instead of screening compounds were prepared in each experiment. In general, experiments were performed thrice in triplicates. At day 6 HBV DNA from 100 μl filtrated cell culture supernatant (AcroPrep Advance 96 Filter Plate, […] Supor membran, PALL GmbH, Dreieich) was automatically purified on the MagNa Pure LC instrument using the MagNA Pure 96 DNA and Viral NA Small Volume Kit (Roche Diagnostics, Mannheim) according to the instructions of the manufacturer. EC50 values were calculated from relative copy numbers of HBV DNA In brief, 5 μl of the 100 μl eluate containing HBV DNA were subjected to PCR LC480 Probes Master Kit (Roche) together with 1 μM antisense primer […], 0.5 μM sense primer […], 0.3 μM hybprobes […]-FL and LC640-[…]-PH (TIBMolBiol, Berlin) to a final volume of 12.5 μl. The PCR was performed on the Light Cycler 480 real time system (Roche Diagnostics, Mannheim) using the following protocol: Pre-incubation for 1 min at 95° C., amplification: 40 cycles×(10 sec at 95° C., 50 sec at 60° C., 1 sec at 70° C.), cooling for 10 sec at 40° C. Viral load was quantitated against known standards using HBV plasmid DNA of pCH-9/3091 (Nassal et al., 1990, Cell 63: 1357-1363) and the LightCycler 480 SW 1.5 software (Roche Diagnostics, Mannheim) and EC50 values were calculated using non-linear regression with GraphPad Prism 6 (GraphPad Software Inc., La Jolla, USA).
In general terms: In qPCR the cycle at which signal appears reflects the starting amount.

Setting [2] is: assembly started with NaCl, fluorescence read after 6 min, read-out: Assembly activity.
[3] abbreviates: read-out: Assembly activity, assembly started with NaCl, fluorescence read after 6 min.

Like-named read-outs stand apart in the source and are kept apart here. Some results are limits rather than exact numbers.

T1 sequence (P03146 whole entry, the tested form may be a part): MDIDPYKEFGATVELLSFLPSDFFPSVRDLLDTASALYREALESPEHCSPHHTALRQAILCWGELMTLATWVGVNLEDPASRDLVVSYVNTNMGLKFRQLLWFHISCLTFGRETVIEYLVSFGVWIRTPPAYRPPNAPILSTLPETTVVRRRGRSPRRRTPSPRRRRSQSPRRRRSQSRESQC

`CN(C(=O)c1cnn2c1CN(C(=O)c1cc3c(F)c(F)ccc3[nH]1)CC2)C1(c2cccc(C(=O)O)c2)CC1` [Example 42, 3-{1-[N-methyl-5-(4,5-difluoro-1H-indole-2-carbonyl)-4H,5H,6H,7H-pyrazolo[1,5-a]pyrazine-3-amido]cyclopropyl}benzoic acid]: in assay [1] (setting [2]), the IC50 was less than 5 µM. In the assay with HBV (HepAD38 cells), the EC50 fell in the range of 1 to 10 µM.
Take `O=C1NC2(CC2)Cn2nc3c(c21)CN(C(=O)c1cc2ccccc2[nH]1)CC3` [Example 43, 12′-(1H-indole-2-carbonyl)-4′,7′,8′,12′-tetraazaspiro[cyclopropane-1,5′-tricyclo[7.4.0.0^2, D]tridecane]-1′,8′-dien-3′-one]: the IC50 in assay [1] (setting [3]) is less than 5 µM. Besides, in the assay on HBV (HepAD38 cells), the EC50 lay within 1 to 10 µM.
Regarding `CN(C(=O)c1cnn2c1CN(C(=O)c1cc3c(Cl)cccc3[nH]1)CC2)C1(c2ncc(C(=O)O)cn2)CC1` [Example 45, 2-{1-[N-methyl-5-(4-chloro-1H-indole-2-carbonyl)-4H,5H,6H,7H-pyrazolo[1,5-a]pyrazine-3-amido]cyclopropyl}pyrimidine-5-carboxylic acid], the IC50 in assay [1] (setting [2]) was less than 5 µM. The EC50 in the assay with HBV (HepAD38 cells) was 1 to 10 µM.
In the case of `C[C@@H](NC(=O)c1noc2c1CN(C(=O)c1cc3ccccc3[nH]1)CC2)C(F)(F)F` [Example 46, 5-(1H-indole-2-carbonyl)-N-[(2R)-1,1,1-trifluoropropan-2-yl]-4H,5H,6H,7H-[1,2]oxazolo[4,5-c]pyridine-3-carboxamide], the IC50 in assay [1] (setting [3]) is less than 5 µM. In the assay with HBV (HepAD38 cells), the EC50 was less than 1 µM.
Take `CN(C(=O)c1cnn2c1CN(C(=O)c1cc3ccccc3[nH]1)CC2)C1(COc2ccc(C(=O)O)cc2)CC1` [Example 47, 4-({1-[N-methyl-5-(1H-indole-2-carbonyl)-4H,5H,6H,7H-pyrazolo[1,5-a]pyrazine-3-amido]cyclopropyl}methoxy)benzoic acid]: in assay [1] (setting [2]), the IC50 was less than 5 µM. For the same compound, the EC50 in the assay on HBV (HepAD38 cells) is less than 1 µM.
With `CN(C(=O)c1[nH]nc2c1CN(C(=O)c1cc3c(Cl)cccc3[nH]1)CC2)C1(c2ccc(C(=O)O)cc2)CC1` [Example 49, 4-{1-[N-methyl-5-(4-chloro-1H-indole-2-carbonyl)-2H,4H,5H,6H,7H-pyrazolo[4,3-c]pyridine-3-amido]cyclopropyl}benzoic acid], the IC50 in assay [1] (setting [2]) was less than 5 µM. Moreover, the EC50 in the assay on HBV (HepAD38 cells) was in the range of 1 to 10 µM.
The like results for `CN(C(=O)c1cnn2c1CN(C(=O)c1cc3cc(F)c(Cl)cc3[nH]1)CC2)C1(c2ccc(C(=O)O)cc2)CC1` [Example 50, 4-{1-[N-methyl-5-(6-chloro-5-fluoro-1H-indole-2-carbonyl)-4H,5H,6H,7H-pyrazolo[1,5-a]pyrazine-3-amido]cyclopropyl}benzoic acid] were, in that order, less than 5 µM and less than 1 µM.
The like results for `CN(C(=O)c1cnn2c1CN(C(=O)c1cc3c(Cl)cccc3[nH]1)CC2)C1(c2ccc(C(=O)O)cc2)CC1` [Example 51, 4-{1-[N-methyl-5-(4-chloro-1H-indole-2-carbonyl)-4H,5H,6H,7H-pyrazolo[1,5-a]pyrazine-3-amido]cyclopropyl}benzoic acid] were, in that order, less than 5 µM and less than 1 µM.
In the case of `CN(C(=O)c1cnn2c1CN(C(=O)c1cc3c(F)c(F)ccc3[nH]1)CC2)C1(c2ccc(C(=O)O)cc2)CC1` [Example 52, 4-{1-[N-methyl-5-(4,5-difluoro-1H-indole-2-carbonyl)-4H,5H,6H,7H-pyrazolo[1,5-a]pyrazine-3-amido]cyclopropyl}benzoic acid], the IC50 in assay [1] (setting [2]) was less than 5 µM. Moreover, the EC50 in the assay with HBV (HepAD38 cells) was less than 1 µM.
As to `Cc1c(F)ccc2[nH]c(C(=O)N3CCn4ncc(C(=O)N(C)C5(c6ccc(C(=O)O)cc6)CC5)c4C3)cc12` [Example 53, 4-{1-[N-methyl-5-(5-fluoro-4-methyl-1H-indole-2-carbonyl)-4H,5H,6H,7H-pyrazolo[1,5-a]pyrazine-3-amido]cyclopropyl}benzoic acid], in assay [1] (setting [2]), the IC50 is less than 5 µM. The EC50 in the assay with HBV (HepAD38 cells) was less than 1 µM.
On to `Cc1cc(F)cc2[nH]c(C(=O)N3CCn4ncc(C(=O)N(C)C5(c6ccc(C(=O)O)cc6)CC5)c4C3)cc12` [Example 54, 4-{1-[N-methyl-5-(6-fluoro-4-methyl-1H-indole-2-carbonyl)-4H,5H,6H,7H-pyrazolo[1,5-a]pyrazine-3-amido]cyclopropyl}benzoic acid], for which the IC50 in assay [1] (setting [2]) is less than 5 µM. Further, the EC50 with HBV (HepAD38 cells) was less than 1 µM.
As for `CN(C(=O)c1[nH]nc2c1CN(C(=O)c1cc3cc(F)c(Cl)cc3[nH]1)CC2)C1(c2ccc(C(=O)O)cc2)CC1` [Example 55, 4-{1-[N-methyl-5-(6-chloro-5-fluoro-1H-indole-2-carbonyl)-2H,4H,5H,6H,7H-pyrazolo[4,3-c]pyridine-3-amido]cyclopropyl}benzoic acid], the IC50 in assay [1] (setting [3]) was less than 5 µM. In the assay on HBV (HepAD38 cells), the EC50 lay within 1 to 10 µM.
Turning to `CN(C(=O)c1cnn2c1CN(C(=O)c1cc3cc(F)c(Cl)cc3[nH]1)CC2)C1(c2ncc(C(=O)O)cn2)CC1` [Example 57, 2-{1-[N-methyl-5-(6-chloro-5-fluoro-1H-indole-2-carbonyl)-4H,5H,6H,7H-pyrazolo[1,5-a]pyrazine-3-amido]cyclopropyl}pyrimidine-5-carboxylic acid], in assay [1] (setting [2]), the IC50 is less than 5 µM. Also, the EC50 in the assay with HBV (HepAD38 cells) lay in the range of 1 to 10 µM.
The like results for `Cc1cc(F)cc2[nH]c(C(=O)N3CCn4ncc(C(=O)N(C)C5(c6ncc(C(=O)O)cn6)CC5)c4C3)cc12` [Example 60, 2-{1-[N-methyl-5-(6-fluoro-4-methyl-1H-indole-2-carbonyl)-4H,5H,6H,7H-pyrazolo[1,5-a]pyrazine-3-amido]cyclopropyl}pyrimidine-5-carboxylic acid] were, in that order, less than 5 µM and 1 to 10 µM.
For `CN(C(=O)c1cnn2c1CN(C(=O)c1cc3ccccc3[nH]1)CC2)C1(COc2ccccc2C(=O)O)CC1` [Example 61, 2-({1-[N-methyl-5-(1H-indole-2-carbonyl)-4H,5H,6H,7H-pyrazolo[1,5-a]pyrazine-3-amido]cyclopropyl}methoxy)benzoic acid], the IC50 in assay [1] (setting [2]) is less than 5 µM. Further, the EC50 with HBV (HepAD38 cells) is 1 to 10 µM.
For `CN(C(=O)c1cnn2c1CN(C(=O)c1cc3ccccc3[nH]1)CC2)C1(COc2cccc(C(=O)O)c2)CC1` [Example 62, 3-({1-[N-methyl-5-(1H-indole-2-carbonyl)-4H,5H,6H,7H-pyrazolo[1,5-a]pyrazine-3-amido]cyclopropyl}methoxy)benzoic acid], the IC50 in assay [1] (setting [2]) is less than 5 µM. In the assay on HBV (HepAD38 cells), the EC50 is less than 100 µM.
The like results for `CN1C(=O)c2c3c(nn2CCC12CC2)CCN(C(=O)c1cc2ccccc2[nH]1)C3` [Example 63, 4′-(1H-indole-2-carbonyl)-13′-methyl-4′, 8′,9′,13′-tetraazaspiro[cyclopropane-1,12′-tricyclo[7.5.0.0^2,]tetradecane]-1′,7′-dien-14′-one] were, in that order, less than 5 µM and less than 1 µM.
In the case of `CN1C(=O)c2c3c(nn2CCC12CC2)CCN(C(=O)c1cc2cc(F)c(Cl)cc2[nH]1)C3` [Example 64, 4′-(6-chloro-5-fluoro-1H-indole-2-carbonyl)-13′-methyl-4′,8′,9′,13′-tetraazaspiro[cyclopropane-1,12′-tricyclo[7.5.0.0^2, Q]tetradecane]-1′,7′-dien-14′-one], the IC50 in assay [1] (setting [2]) is less than 5 µM. For the same compound, the EC50 with HBV (HepAD38 cells) is less than 1 µM.
`CN1C(=O)c2c3c(nn2CCC12CC2)CCN(C(=O)c1cc2c(Cl)cccc2[nH]1)C3` [Example 68, 4′-(4-chloro-1H-indole-2-carbonyl)-13′-methyl-4′, 8′,9′,13′-tetraazaspiro[cyclopropane-1,12′-tricyclo[7.5.0.0^2,7]tetradecane]-1′,7′-dien-14′-one]: the IC50 in assay [1] (setting [2]) is less than 5 µM. In the assay with HBV (HepAD38 cells), the EC50 was less than 1 µM.
